Data taken from PubChem BioAssay AID1918934 (Molecular Pharmacology Branch, DTP, NCI, 2023).
Values joined by “and” are separate entries in the source; they are usually repeats but may differ in a detail not shown here. Equal values may be shown once.

Tested on: 292921-168-R-J2-PDC complex spheroid viability
Assay: Anticancer human tumor 292921-168-R-J2-PDC patient-derived pancreatic carcinoma cell line growth inhibition
Conditions: for viability, T/C: stronger effect = lower value
Outline: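 Drug combinations with the LSD1 inhibitor iadademstat tested on tumor cells co-cultured as spheroids with endothelial cells and mesenchymal stem cells. Concentrations descended in half-log increments from clinical Cmax or 10 microM.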

[1] = curve of first compound, second compound 0.1 µM
[2] = curve of first compound, second compound 0.316 µM
[3] = curve of first compound, second compound 1 µM
[4] = curve of first compound, second compound 3.16 µM
[5] = curve of first compound, second compound 10 µM
[6] = second compound 0.1 µM, first compound 0.0316 µM
[7] = second compound 0.1 µM, first compound 0.1 µM
[8] = second compound 0.1 µM, first compound 0.316 µM
[9] = second compound 0.1 µM, first compound 1 µM
[10] = second compound 0.316 µM, first compound 0.0316 µM
[11] = second compound 0.316 µM, first compound 0.1 µM
[12] = second compound 0.316 µM, first compound 0.316 µM
[13] = second compound 0.316 µM, first compound 1 µM
[14] = second compound 1 µM, first compound 0.0316 µM
[15] = second compound 1 µM, first compound 0.1 µM
[16] = second compound 1 µM, first compound 0.316 µM
[17] = second compound 1 µM, first compound 1 µM
[18] = second compound 3.16 µM, first compound 0.0316 µM
[19] = second compound 3.16 µM, first compound 0.1 µM
[20] = second compound 3.16 µM, first compound 0.316 µM
[21] = second compound 3.16 µM, first compound 1 µM
[22] = second compound 10 µM, first compound 0.0316 µM
[23] = second compound 10 µM, first compound 0.1 µM
[24] = second compound 10 µM, first compound 0.316 µM
[25] = second compound 10 µM, first compound 1 µM
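Also: seven day compound exposure before luminescent viability read.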
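For viability, T/C in this document: 100% = DMSO vehicle control wells.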

## CC1COCCN1c1cc(-c2ccnn2C)c2ccnc(-c3ccn[nH]3)c2n1 (configuration not stated) + NC1CC1c1ccc(-c2cccc(O)c2)cc1
[1]
  IC50: < 3.16 nM
[2]
  IC50: < 3.16 nM
[3]
  IC50: < 3.16 nM
[4]
  IC50: < 3.16 nM
[5]
  IC50: < 3.16 nM
Second compound 0.1 µM, first compound 0.00316 µM
  viability, T/C: 16.9%
Second compound 0.1 µM, first compound 0.01 µM
  viability, T/C: 15.3%
[6]
  viability, T/C: 14.2%
[7]
  viability, T/C: 15.7%
[8]
  viability, T/C: 16.2%
[9]
  viability, T/C: 17.7%
Second compound 0.316 µM, first compound 0.00316 µM
  viability, T/C: 17.2%
Second compound 0.316 µM, first compound 0.01 µM
  viability, T/C: 14.9%
[10]
  viability, T/C: 13.2%
[11]
  viability, T/C: 14.3%
[12]
  viability, T/C: 15.9%
[13]
  viability, T/C: 16.7%
Second compound 1 µM, first compound 0.00316 µM
  viability, T/C: 17.7%
Second compound 1 µM, first compound 0.01 µM
  viability, T/C: 15.4%
[14]
  viability, T/C: 14.1%
[15]
  viability, T/C: 12.7%
[16]
  viability, T/C: 16.8%
[17]
  viability, T/C: 20.3%
Second compound 3.16 µM, first compound 0.00316 µM
  viability, T/C: 15.2%
Second compound 3.16 µM, first compound 0.01 µM
  viability, T/C: 15.4%
[18]
  viability, T/C: 14.7%
[19]
  viability, T/C: 13.7%
[20]
  viability, T/C: 14.9%
[21]
  viability, T/C: 17%
Second compound 10 µM, first compound 0.00316 µM
  viability, T/C: 15.1%
Second compound 10 µM, first compound 0.01 µM
  viability, T/C: 14.6%
[22]
  viability, T/C: 14.6%
[23]
  viability, T/C: 13.5%
[24]
  viability, T/C: 15.1%
[25]
  viability, T/C: 17.1%

## CC1COCCN1c1cc(C2(S(C)(=N)=O)CC2)nc(-c2ccnc3[nH]ccc23)n1 (configuration not stated)
Compound 0.0316 µM
  viability, T/C: 104% and 96.3%
Compound 0.1 µM
  viability, T/C: 102% and 99.3%
Compound 0.316 µM
  viability, T/C: 73.6% and 77.7%
Compound 1 µM
  viability, T/C: 31.6% and 35.1%
Compound 3.16 µM
  viability, T/C: 13.4% and 16.8%
Compound 10 µM
  viability, T/C: 12.6% and 11.3%
Curve of compound
  IC50: 602 nM and 673 nM

## O=C(C=Cc1cccc(S(=O)(=O)Nc2ccccc2)c1)NO + NC1CCC(NC2CC2c2ccccc2)CC1
[1]
  IC50: < 9.49 nM
[2]
  IC50: < 9.49 nM
[3]
  IC50: < 9.49 nM
[4]
  IC50: < 9.49 nM
[5]
  IC50: < 9.49 nM
Second compound 0.1 µM, first compound 0.00949 µM
  viability, T/C: 44%
Second compound 0.1 µM, first compound 0.03 µM
  viability, T/C: 36.2%
Second compound 0.1 µM, first compound 0.0949 µM
  viability, T/C: 28.6%
Second compound 0.1 µM, first compound 0.3 µM
  viability, T/C: 17.3%
Second compound 0.1 µM, first compound 0.949 µM
  viability, T/C: 0.45%
Second compound 0.1 µM, first compound 3 µM
  viability, T/C: 0.08%
Second compound 0.316 µM, first compound 0.00949 µM
  viability, T/C: 48.7%
Second compound 0.316 µM, first compound 0.03 µM
  viability, T/C: 34.8%
Second compound 0.316 µM, first compound 0.0949 µM
  viability, T/C: 31.6%
Second compound 0.316 µM, first compound 0.3 µM
  viability, T/C: 19.1%
Second compound 0.316 µM, first compound 0.949 µM
  viability, T/C: 0.37%
Second compound 0.316 µM, first compound 3 µM
  viability, T/C: 0.38%
Second compound 1 µM, first compound 0.00949 µM
  viability, T/C: 43.8%
Second compound 1 µM, first compound 0.03 µM
  viability, T/C: 35.6%
Second compound 1 µM, first compound 0.0949 µM
  viability, T/C: 30.9%
Second compound 1 µM, first compound 0.3 µM
  viability, T/C: 15.2%
Second compound 1 µM, first compound 0.949 µM
  viability, T/C: 0.34%
Second compound 1 µM, first compound 3 µM
  viability, T/C: 0.09%
Second compound 3.16 µM, first compound 0.00949 µM
  viability, T/C: 40%
Second compound 3.16 µM, first compound 0.03 µM
  viability, T/C: 33.4%
Second compound 3.16 µM, first compound 0.0949 µM
  viability, T/C: 24.4%
Second compound 3.16 µM, first compound 0.3 µM
  viability, T/C: 12.4%
Second compound 3.16 µM, first compound 0.949 µM
  viability, T/C: 0.19%
Second compound 3.16 µM, first compound 3 µM
  viability, T/C: 0.08%
Second compound 10 µM, first compound 0.00949 µM
  viability, T/C: 42.2%
Second compound 10 µM, first compound 0.03 µM
  viability, T/C: 32.4%
Second compound 10 µM, first compound 0.0949 µM
  viability, T/C: 22.9%
Second compound 10 µM, first compound 0.3 µM
  viability, T/C: 7.61%
Second compound 10 µM, first compound 0.949 µM
  viability, T/C: 0.12%
Second compound 10 µM, first compound 3 µM
  viability, T/C: 0.13%

## O=C(c1cc(Cc2n[nH]c(=O)c3ccccc23)ccc1F)N1CCN(C(=O)C2CC2)CC1 + NC1CCC(NC2CC2c2ccccc2)CC1
[1]
  IC50: 4520 nM
[2]
  IC50: 3020 nM
[3]
  IC50: 1060 nM
[4]
  IC50: 1220 nM
[5]
  IC50: 1300 nM
[6]
  viability, T/C: 63.7%
[7]
  viability, T/C: 65.6%
[8]
  viability, T/C: 70.3%
[9]
  viability, T/C: 58.6%
Second compound 0.1 µM, first compound 3.16 µM
  viability, T/C: 55%
Second compound 0.1 µM, first compound 10 µM
  viability, T/C: 39.5%
[10]
  viability, T/C: 61.5%
[11]
  viability, T/C: 59.8%
[12]
  viability, T/C: 64.7%
[13]
  viability, T/C: 57.1%
Second compound 0.316 µM, first compound 3.16 µM
  viability, T/C: 47.5%
Second compound 0.316 µM, first compound 10 µM
  viability, T/C: 36%
[14]
  viability, T/C: 55.5%
[15]
  viability, T/C: 58.6%
[16]
  viability, T/C: 51.8%
[17]
  viability, T/C: 51.9%
Second compound 1 µM, first compound 3.16 µM
  viability, T/C: 42.5%
Second compound 1 µM, first compound 10 µM
  viability, T/C: 31.8%
[18]
  viability, T/C: 55.4%
[19]
  viability, T/C: 54.5%
[20]
  viability, T/C: 60%
[21]
  viability, T/C: 50.3%
Second compound 3.16 µM, first compound 3.16 µM
  viability, T/C: 42%
Second compound 3.16 µM, first compound 10 µM
  viability, T/C: 34.9%
[22]
  viability, T/C: 53.9%
[23]
  viability, T/C: 54.4%
[24]
  viability, T/C: 54.4%
[25]
  viability, T/C: 52%
Second compound 10 µM, first compound 3.16 µM
  viability, T/C: 42.9%
Second compound 10 µM, first compound 10 µM
  viability, T/C: 32%
